By IC50 is commonly meant the midpoint of a concentration-inhibition curve.

Counter-ions that a name gives are not always drawn.

One test concerns human cervical tumor cell line HeLa (ATCC CCL-2). The experiment in a line: SAC-Formation - Nocodazole-Induced Assay. The format is cell-based. The conditions noted are these: HeLa cells, nocodazole 0.1 μg/ml together with test compound, 24 h, decrease of mitotic cells (phospho-histone H3 Ser10). The essentials:
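Loss of phospho-histone H3 Ser10-positive cells, counted against Hoechst-stained nuclei by high-content imaging, marked mitotic breakthrough. Compounds (0.005–20 μM, 0.5% DMSO) were co-dosed with 0.1 μg/ml nocodazole onto HeLa cells for 24 h at 37 °C. Curves were fitted with a four-parameter Hill equation.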
On to `Cc1nsc(Nc2cnc(C(F)(F)F)cn2)c1C(=O)Nc1ccc(OC[C@@H]2CCCN(CCC(F)(F)F)C2)nc1` [Example 422, 3-Methyl-5-{[5-(trifluoromethyl)pyrazin-2-yl]amino}-N-(6-{[(3R)-1-(3,3,3-trifluoropropyl)piperidin-3-yl]methoxy}pyridin-3-yl)-1,2-thiazole-4-carboxamide], for which the 50% inhibitory concentration (IC50) was determined as 40 nM.
The same measure, in the same setting: the same measure for `Cc1nsc(Nc2cnc(C(F)(F)F)cn2)c1C(=O)Nc1ccc(F)c(OCC2CCCN(CC(F)F)C2)c1` (centres unmarked) [Example 335, N-(3-{[1-(2,2-difluoroethyl)piperidin-3-yl]methoxy}-4-fluorophenyl)-3-methyl-5-{[5-(trifluoromethyl)pyrazin-2-yl]amino}-1,2-thiazole-4-carboxamide]: 55 nM.
Take `Cc1nsc(Nc2cnc(C(F)(F)F)cn2)c1C(=O)Nc1ccc(OC2CCN(CCC(F)(F)F)CC2)nc1` [Example 426, 3-Methyl-5-{[5-(trifluoromethyl)pyrazin-2-yl]amino}-N-(6-{[1-(3,3,3-trifluoro-propyl)piperidin-4-yl]oxy}pyridin-3-yl)-1,2-thiazole-4-carboxamide, Salt with Hydrochloric Acid]: the IC50 was determined as 30 nM.

Staying with this test, now noted: Homo sapiens, HeLa, 24 h, HeLa cells, nocodazole 0.1 μg/ml together with test compound, decrease of mitotic cells (phospho-histone H3 Ser10).
For the compound `Cc1nsc(Nc2cncc(C(F)(F)F)n2)c1C(=O)Nc1ccc(OCC2CCCN(C(=O)OC(C)(C)C)C2)nc1` (centres unmarked) [Example 166, tert-butyl 3-{[(5-{[(3-methyl-5-{[6-(trifluoromethyl)pyrazin-2-yl]amino}-1,2-thiazol-4-yl)carbonyl]amino}pyridin-2-yl)oxy]methyl}piperidine-1-carboxylate], the IC50 was found to be 52 nM.
Same read-out and setting: then `Cc1nsc(Nc2cc(C#N)ccn2)c1C(=O)Nc1ccc(Oc2cccnc2)nc1` [Example 119, 5-[(4-Cyanopyridin-2-yl)amino]-3-methyl-N-[6-(pyridin-3-yloxy)pyridin-3-yl]-1,2-thiazole-4-carboxamide], with 4500 nM.
On the same count and under the same terms, the same measure for `Cc1nsc(Nc2cnc3cc(F)ccc3n2)c1C(=O)Nc1ccc(S(N)(=O)=O)cc1` [Example 149, 5-[(6-fluoroquinoxalin-2-yl)amino]-3-methyl-N-(4-sulfamoylphenyl)-1,2-thiazole-4-carboxamide]: 470 nM; for `CC(=O)N(C)CCOc1ccc(NC(=O)c2c(C)nsc2Nc2nc3c(C(F)(F)F)cccc3s2)cn1` [Example 112, N-(6-{2-[Acetyl(methyl)amino]-ethoxy}pyridin-3-yl)-3-methyl-5-{[4-(trifluoromethyl)-1,3-benzothiazol-2-yl]amino}-1,2-thiazole-4-carboxamide]: 230 nM; for `CC(=O)N1CCC(Oc2ccc(NC(=O)c3c(C)nsc3Nc3cnc(C(F)(F)F)cn3)cn2)CC1` [Example 11, N-{6-[(1-Acetylpiperidin-4-yl)oxy]pyridin-3-yl}-3-methyl-5-{[5-(trifluoromethyl)-pyrazin-2-yl]amino}-1,2-thiazole-4-carboxamide]: 1000 nM.
On the same count and under the same terms, then `CCNS(=O)(=O)c1ccc(NC(=O)c2c(C)nsc2Nc2cnc3ccccc3n2)cc1` [Example 116, N-[4-(Ethylsulfamoyl)phenyl]-3-methyl-5-(quinoxalin-2-ylamino)-1,2-thiazole-4-carboxamide], with 810 nM.
On to `CCCN1CC[C@H](Oc2ccc(NC(=O)c3c(C)nsc3Nc3cnc(C(F)(F)F)cn3)cn2)[C@H](F)C1` [Example 147, N-(6-{[(3R,4S)-3-fluoro-1-propylpiperidin-4-yl]oxy}pyridin-3-yl)-3-methyl-5-{[5-(trifluoromethyl)pyrazin-2-yl]amino}-1,2-thiazole-4-carboxamide], for which the IC50 came out at 5.9 nM.
The same measure, in the same setting: then `Cc1nsc(Nc2cnc(C(F)(F)F)cn2)c1C(=O)Nc1ccc(O[C@H]2CCN(CC(F)(F)F)C[C@H]2F)nc1` [Example 145, N-(6-{[(3R,4S)-3-fluoro-1-(2,2,2-trifluoroethyl)piperidin-4-yl]oxy}pyridin-3-yl)-3-methyl-5-{[5-(trifluoromethyl)pyrazin-2-yl]amino}-1,2-thiazole-4-carboxamide], with 13 nM; and `Cc1nsc(Nc2cnc3ccccc3n2)c1C(=O)Nc1ccc(NC2CC2)nc1` [Example 172, N-[6-(cyclopropylamino)pyridin-3-yl]-3-methyl-5-(quinoxalin-2-ylamino)-1,2-thiazole-4-carboxamide], with 3500 nM.
For `Cc1nsc(Nc2cnc(C(F)(F)F)cn2)c1C(=O)Nc1ccc(OCC2CCN(CC(F)F)C2)nc1` (centres unmarked) [Example 122, N-(6-{[1-(2,2-difluoroethyl)pyrrolidin-3-yl]methoxy}pyridin-3-yl)-3-methyl-5-{[5-(trifluoromethyl)pyrazin-2-yl]amino}-1,2-thiazole-4-carboxamide], the IC50 turned out to be 39 nM.
As for `Cc1nsc(Nc2cnc3ccccc3n2)c1C(=O)Nc1ccc(C(=O)NC2CN(C(=O)OC(C)(C)C)CC(F)(F)C2)cc1` (centres unmarked) [Example 158, tert-butyl 3,3-difluoro-5-{[4-({[3-methyl-5-(quinoxalin-2-ylamino)-1,2-thiazol-4-yl]carbonyl}amino)benzoyl]amino} piperidine-1-carboxylate], the IC50 was found to be 240 nM.
On the same count and under the same terms, then `Cc1nsc(Nc2cnc3ccccc3n2)c1C(=O)Nc1cccc(C(=O)N[C@@H](CCC(N)=O)C(=O)O)c1` [Example 103, N^2-[3-({[3-Methyl-5-(quinoxalin-2-ylamino)-1,2-thiazol-4-yl]carbonyl}amino)-benzoyl]glutamine], with 13000 nM.
The same measure, in the same setting: the same measure for `Cc1nsc(Nc2cnc(C(F)(F)F)cn2)c1C(=O)Nc1ccc(O[C@@H]2CCN(CCC(F)(F)F)C[C@@H]2F)nc1` [Example 139, N-(6-{[(3S,4R)-3-fluoro-1-(3,3,3-trifluoropropyl)piperidin-4-yl]oxy}pyridin-3-yl)-3-methyl-5-{[5-(trifluoromethyl)pyrazin-2-yl]amino}-1,2-thiazole-4-carboxamide]: 16 nM; for `CC(=O)Nc1cc(NC(=O)c2c(C)nsc2Nc2ccc(C#N)cn2)ccc1F` [Example 152, N-(3-acetamido-4-fluorophenyl)-5-[(5-cyanopyridin-2-yl)amino]-3-methyl-1,2-thiazole-4-carboxamide]: 8400 nM.
Same read-out and setting: the same measure for `Cc1nsc(Nc2cnc(C(F)(F)F)cn2)c1C(=O)Nc1ccc(OCC2CCN(CCF)C2)nc1` (centres unmarked) [Example 121, N-(6-{[1-(2-fluoroethyl)pyrrolidin-3-yl]methoxy}pyridin-3-yl)-3-methyl-5-{[5-(trifluoromethyl)pyrazin-2-yl]amino}-1,2-thiazole-4-carboxamide]: 340 nM.
In the case of `Cc1nsc(Nc2cc(C#N)ccn2)c1C(=O)Nc1cccc(C(=O)N2CCCC2)c1` [Example 114, 5-[(4-Cyanopyridin-2-yl)amino]-3-methyl-N-[3-(pyrrolidin-1-ylcarbonyl)phenyl]-1,2-thiazole-4-carboxamide], the IC50 amounted to 210 nM.
Same read-out and setting: then `Cc1nsc(Nc2ccc(C#N)cn2)c1C(=O)Nc1ccc(NC2CCCN(C(=O)OC(C)(C)C)C2)nc1` (centres unmarked) [Example 171, tert-butyt 3-({5-[({5-[(5-cyanopyridin-2-yl)amino]-3-methyl-1,2-thiazol-4-yl}carbonyl)amino]pyridin-2-yl}amino)piperidine-1-carboxylate], with 71 nM; and `Cc1nsc(Nc2cnc3ccccc3n2)c1C(=O)Nc1ccc(C(=O)N2CCCN(CC(F)(F)F)CC2)cc1` [Example 159], with 1500 nM; and `Cc1nsc(Nc2cnc3ccccc3n2)c1C(=O)Nc1cccc(-c2nnc(C(C)(C)C)o2)c1` [Example 107, N-[3-(5-tert-Butyl-1,3,4-oxadiazol-2-yl)phenyl]-3-methyl-5-(quinoxalin-2-ylamino)-1,2-thiazole-4-carboxamide], with 11 nM.
Same read-out and setting: the same measure for `Cc1nsc(Nc2cnc(C(F)(F)F)cn2)c1C(=O)Nc1ccc(OC[C@H]2CCN(CC(F)F)C2)nc1` [Example 132, N-(6-{[(3S)-1-(2,2-difluoroethyl)pyrrolidin-3-yl]methoxy}pyridin-3-yl)-3-methyl-5-{[5-(trifluoromethyl)pyrazin-2-yl]amino}-1,2-thiazole-4-carboxamide]: 27 nM; for `Cc1nsc(Nc2ccc(C#N)cn2)c1C(=O)Nc1cccc(S(C)(=O)=O)c1` [Example 150, 5-[(5-cyanopyridin-2-yl)amino]-3-methyl-N-[3-(methylsulfonyl)phenyl]-1,2-thiazole-4-carboxamide]: 160 nM; for `Cc1noc(-c2cccc(NC(=O)c3c(C)nsc3Nc3cnc4ccccc4n3)c2)n1` [Example 106, 3-Methyl-N-[3-(3-methyl-1,2,4-oxadiazol-5-yl)phenyl]-5-(quinoxalin-2-ylamino)-1,2-thiazole-4-carboxamide]: 140 nM.
For the compound `Cc1nsc(Nc2cnc3ccccc3n2)c1C(=O)Nc1cccc(C(=O)N2CCN(C)CC2)c1` [Example 102, 3-Methyl-N-{3-[(4-methylpiperazin-1-yl)carbonyl]phenyl}-5-(quinoxalin-2-ylamino)-1,2-thiazole-4-carboxamide], the IC50 stood at 4900 nM.
Consider `Cc1nsc(Nc2cnc(C(F)(F)F)cn2)c1C(=O)Nc1ccc(OC2CCN(CC(F)F)CC2)c(F)c1` [Example 164, N-(4-{[1-(2,2-difluoroethyl)piperidin-4-yl]oxy}-3-fluorophenyl)-3-methyl-5-{[5-(trifluoromethyl)pyrazin-2-yl]amino}-1,2-thiazole-4-carboxamide], for which the IC50 stood at 84 nM.
Still for that read-out and setting: the same measure for `CCCCN1CC[C@H](Oc2ccc(NC(=O)c3c(C)nsc3Nc3cnc(C(F)(F)F)cn3)cn2)[C@H](F)C1` [Example 148, N-(6-{[(3R,4S)-1-butyl-3-fluoropiperidin-4-yl]oxy}pyridin-3-yl)-3-methyl-5-{[5-(trifluoromethyl)pyrazin-2-yl]amino}-1,2-thiazole-4-carboxamide]: 210 nM; for `Cc1nsc(Nc2cnc3ccccc3n2)c1C(=O)Nc1cccc(C(=O)N2CCNCC2)c1` [Example 101, 3-Methyl-N-[3-(piperazin-1-ylcarbonyl)phenyl]-5-(quinoxalin-2-ylamino)-1,2-thiazole-4-carboxamide]: 1800 nM.

The record behind these values is patent US20170334899A1, “AMINO-SUBSTITUTED ISOTHIAZOLES” (Bayer Pharma Aktiengesellschaft, priority 2014, published 2017).
